Assay results taken from patent US20220112217A1, “PYRAZOLOPYRIMIDINE DERIVATIVE AND USE THEREOF AS PI3K INHIBITOR” (MEDSHINE DISCOVERY INC., priority 2018, published 2022).

Assays:
Jeko-1 cell = Jeko-1 cell test (IgM-stimulated, phosphorylated AKT readout); assay type: cell-based; settings: Homo sapiens, 2 h compound, IgM stimulation 10 min, phospho-AKT
Protocol: (§1) 7) After incubation, readings at 620 and 665 nm on EnVingen were recorded. • <2> TMD-8 cell viability test • 1) Cell Culture

[1] = test system: human lymphoma TMD-8 subcutaneous xenograft tumors; test: In vivo efficacy study, TMD-8 subcutaneous xenograft in CB-17 SCID mice; design: species or system CB-17 SCID mouse
Protocol: In Vivo Efficacy Study • Objectives: To evaluate the efficacy of the compounds on human lymphoma TMD-8 subcutaneous xenograft tumors in a CB-17 SCID mouse model. • Procedures: • (1) Cell Culture • Human lymphoma TMD-8 cells (Shanghai Junrui-UFBN1682) were cultivated in an RPMI 1640 medium containing 10% fetal bovine serum, 100 U/mL penicillin and 100 μg/mL streptomycin through monolayer culture in vitro in an incubator at 37° C./5% CO2. The cells were digested with trypsin-EDTA twice a week for passaging as per conventional practice. When the saturation reached 80%-90%, the cells were collected, counted and grafted. • (2) Tumor Cell Grafting
0.2 mL (1×10^7 cells) of TMD-8 cells (along with matrigel in a volume ratio of 1:1) was subcutaneously grafted on the right back of each mouse, and the mice were randomized when the mean tumor volume was 99 mm^3. • (3) Preparation of Test Compound
Vehicle group: 0.5% MC/0.2% Tween 80/99.3% water.
Test compound group: A certain amount of the compound was dissolved in a corresponding volume of vehicle in a brown flask. The mixture was vortexed to give a uniform suspension or clear solution.
The experimental indices were to investigate whether tumor growth was inhibited or delayed or the tumor was cured. Tumor diameters were measured twice weekly using a vernier caliper. The tumor volume was calculated according to the following formula: V=0.5a x b^2, where a and b represent the long diameter and short diameter of the tumor, respectively.
The efficacy of compounds against tumor was evaluated by TGI (%). TGI (%) refers to the rate of tumor growth inhibition.

PI3K delta = PI3K delta (Homo sapiens, UniProt O00329); test: In vitro enzyme activity assay (ADP-Glo lipid kinase), PI3K delta; settings: PI3Kδ IC50, ATP 40 μM, PIP2:3PS 50 μM, 120 min;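 note: kinase reaction run at 23 °C, then leftover ATP depleted and the ADP formed turned back into ATP, with the luciferin/luciferase signal read as kinase activity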
Sequence of PI3K delta (O00329 whole entry): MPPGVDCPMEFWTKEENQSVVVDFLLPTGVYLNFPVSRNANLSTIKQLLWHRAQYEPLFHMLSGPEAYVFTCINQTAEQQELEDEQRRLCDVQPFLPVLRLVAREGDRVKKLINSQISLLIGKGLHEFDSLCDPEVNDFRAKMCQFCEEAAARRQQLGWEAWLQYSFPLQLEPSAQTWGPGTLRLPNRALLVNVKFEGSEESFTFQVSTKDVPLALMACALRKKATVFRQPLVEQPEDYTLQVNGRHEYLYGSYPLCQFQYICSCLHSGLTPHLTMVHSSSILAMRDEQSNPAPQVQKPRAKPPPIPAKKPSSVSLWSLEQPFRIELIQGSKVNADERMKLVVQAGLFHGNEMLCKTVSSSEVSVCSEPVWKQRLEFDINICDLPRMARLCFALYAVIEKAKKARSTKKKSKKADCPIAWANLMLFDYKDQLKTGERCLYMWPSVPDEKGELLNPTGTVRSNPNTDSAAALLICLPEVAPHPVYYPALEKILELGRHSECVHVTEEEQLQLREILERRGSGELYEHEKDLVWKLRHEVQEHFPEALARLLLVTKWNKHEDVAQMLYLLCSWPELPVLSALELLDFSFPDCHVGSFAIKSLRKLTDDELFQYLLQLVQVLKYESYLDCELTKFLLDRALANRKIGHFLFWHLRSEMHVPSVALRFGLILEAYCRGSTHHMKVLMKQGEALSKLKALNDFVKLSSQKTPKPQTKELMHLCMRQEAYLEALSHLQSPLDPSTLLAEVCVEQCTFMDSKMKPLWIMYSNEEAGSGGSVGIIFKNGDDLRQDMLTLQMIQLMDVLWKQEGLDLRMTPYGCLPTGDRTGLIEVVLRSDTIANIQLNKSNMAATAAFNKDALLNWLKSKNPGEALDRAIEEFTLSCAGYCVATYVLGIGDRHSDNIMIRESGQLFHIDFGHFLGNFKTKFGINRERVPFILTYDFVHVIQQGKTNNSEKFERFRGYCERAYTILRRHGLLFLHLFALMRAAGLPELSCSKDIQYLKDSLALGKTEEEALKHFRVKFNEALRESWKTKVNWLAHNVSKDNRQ
Sequence of PI3K delta (P27986 whole entry partner): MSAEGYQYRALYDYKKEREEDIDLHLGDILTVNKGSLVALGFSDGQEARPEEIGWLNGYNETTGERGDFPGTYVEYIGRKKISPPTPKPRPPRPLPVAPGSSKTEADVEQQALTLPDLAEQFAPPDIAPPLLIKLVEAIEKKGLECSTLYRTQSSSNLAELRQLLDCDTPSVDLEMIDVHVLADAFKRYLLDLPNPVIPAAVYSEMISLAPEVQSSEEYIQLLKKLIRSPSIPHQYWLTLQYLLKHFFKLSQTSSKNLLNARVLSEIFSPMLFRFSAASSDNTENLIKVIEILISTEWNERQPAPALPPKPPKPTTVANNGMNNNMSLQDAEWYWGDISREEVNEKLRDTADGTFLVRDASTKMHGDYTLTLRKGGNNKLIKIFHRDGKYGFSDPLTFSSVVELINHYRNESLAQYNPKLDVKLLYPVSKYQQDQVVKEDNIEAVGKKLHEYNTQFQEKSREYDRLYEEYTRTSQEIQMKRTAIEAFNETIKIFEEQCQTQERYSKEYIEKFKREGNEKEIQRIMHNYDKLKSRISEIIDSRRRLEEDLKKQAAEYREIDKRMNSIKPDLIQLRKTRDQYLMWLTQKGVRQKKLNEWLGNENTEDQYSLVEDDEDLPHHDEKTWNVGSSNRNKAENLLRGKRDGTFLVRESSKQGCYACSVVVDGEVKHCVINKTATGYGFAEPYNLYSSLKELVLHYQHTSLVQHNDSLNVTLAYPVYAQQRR
Protocol: (§2) An appropriate substrate and ATP were incubated at a suitable condition for lipid kinase reaction, followed by a two-step detection of kinase activity using an ADP-Glo™ kit. Step I: The kinase reaction was terminated and residual ATP was completely removed, leaving ADP only; Step II: A kinase assay reagent was added to convert ADP to ATP by a luciferin/luciferase reaction. Finally, a fluorescence output value was detected and converted into kinase activity.
(§3) • 2) Kit: ADP-Glo™ lipid kinase and PIP2:3PS kit (Promega #V1792)
The kit comprises: 1 mM PIP2:3PS, 10× lipid dilution buffer, 1 M magnesium chloride, 10 mM ATP, 10 mM ADP, ADP-Glo reagent, detection buffer and substrate. • 3) Plate: OptiPlate-384, white and transparent (PerkinElmer #6007299) Reagent preparation: • 1) 10x reaction buffer: 500 mM HEPES (4-(2-hydroxyethyl)-1-piperazineethanesulfonic acid), pH 7.5, 500 mM NaCl, 9 mM MgCl2; BSA: 10% stock solution, prepared in-house • 2) Condition for final test system: 1× reaction system: 50 mM HEPES, 50 mM NaCl, 3 mM MgCl2, 0.01% BSA (prepared on the day of experiment), 1% DMSO (v/v) +/−compound • 3) Reaction system: 3 μL of enzyme and substrate mixture (1:1) +2 μL of ATP/MgCl2 mixture +5 μL of ADP-Glo reagent +10 μL detection reagent.
The specific experimental procedures are as follows: • 1) Dilution: 50 nL of 100× compound/DMSO solution were transferred into a test plate using Echo • For PI3Kα, the compound was serially diluted by three fold from the highest concentration 0.111 mM to the 10th concentration. • For PI3Kβ/PI3Kδ/PI3Kγ, the compound was serially diluted by three fold from the highest concentration of 1.11 mM to the 10th concentration. • 2) Kinase reaction: • (1) The target compounds were prepared. 50 nL of 100× compound solution or DMSO was added to the corresponding plate • (2) A 3.33 × reaction buffer was prepared • (3) A 3.33× PIP2:3PS solution were prepared; the PIP2:3PS solution should be thawed by vortex for at least 1 min before use • (4) An ATP solution containing 5.25 mM MgCl2 was prepared • (5) 3.33× PI3Kα/PI3Kβ/PI3Kδ/PI3Kγ solutions were prepared • (6) The lipid kinase solution and PIP2:3PS solution were mixed at a volume ratio of 1:1 • (7) The 3.33 × lipid kinase buffer and PIP2:3PS solution were mixed at a volume ratio of 1:1 • (8) 3 μL of the mixed solution of reaction buffer and PIP2:3PS was added to Columns 1 and 2 of the plate • (9) 3 μL of the mixed solution of the enzyme and PIP2:3PS was added to the wells of the plate other than Columns 1 and 2, and was centrifuged for 10 s (1000 rpm). The mixture was incubated at 23° C. for 20 min • (10) 2 μL of ATP solution was added, and the mixture was centrifuged at 1000 rpm and was shaken to mix well • (11) The plate was covered, shaken for about 30 s, and incubated for 2 h at 23° C. • (12) 5 μL of ADP-Glo reagent containing 10 mM MgCl2 was added • (13) The mixture was centrifuged at 1000 rpm for 10 s, covered and shaken for about 30 s, and incubated at 23° C. for 60 min • (14) 10 μL of kinase assay reagent was added • (15) The mixture was centrifuged at 1000 rpm for 10 s, and incubated at 23° C. for 60 min • (16) Fluorescence values were measured by an Envision system. • 2.

PI3K beta = PI3K beta (Homo sapiens, UniProt P42338); test: In vitro enzyme activity assay (ADP-Glo lipid kinase), PI3K beta
Sequence of PI3K beta (P42338 whole entry): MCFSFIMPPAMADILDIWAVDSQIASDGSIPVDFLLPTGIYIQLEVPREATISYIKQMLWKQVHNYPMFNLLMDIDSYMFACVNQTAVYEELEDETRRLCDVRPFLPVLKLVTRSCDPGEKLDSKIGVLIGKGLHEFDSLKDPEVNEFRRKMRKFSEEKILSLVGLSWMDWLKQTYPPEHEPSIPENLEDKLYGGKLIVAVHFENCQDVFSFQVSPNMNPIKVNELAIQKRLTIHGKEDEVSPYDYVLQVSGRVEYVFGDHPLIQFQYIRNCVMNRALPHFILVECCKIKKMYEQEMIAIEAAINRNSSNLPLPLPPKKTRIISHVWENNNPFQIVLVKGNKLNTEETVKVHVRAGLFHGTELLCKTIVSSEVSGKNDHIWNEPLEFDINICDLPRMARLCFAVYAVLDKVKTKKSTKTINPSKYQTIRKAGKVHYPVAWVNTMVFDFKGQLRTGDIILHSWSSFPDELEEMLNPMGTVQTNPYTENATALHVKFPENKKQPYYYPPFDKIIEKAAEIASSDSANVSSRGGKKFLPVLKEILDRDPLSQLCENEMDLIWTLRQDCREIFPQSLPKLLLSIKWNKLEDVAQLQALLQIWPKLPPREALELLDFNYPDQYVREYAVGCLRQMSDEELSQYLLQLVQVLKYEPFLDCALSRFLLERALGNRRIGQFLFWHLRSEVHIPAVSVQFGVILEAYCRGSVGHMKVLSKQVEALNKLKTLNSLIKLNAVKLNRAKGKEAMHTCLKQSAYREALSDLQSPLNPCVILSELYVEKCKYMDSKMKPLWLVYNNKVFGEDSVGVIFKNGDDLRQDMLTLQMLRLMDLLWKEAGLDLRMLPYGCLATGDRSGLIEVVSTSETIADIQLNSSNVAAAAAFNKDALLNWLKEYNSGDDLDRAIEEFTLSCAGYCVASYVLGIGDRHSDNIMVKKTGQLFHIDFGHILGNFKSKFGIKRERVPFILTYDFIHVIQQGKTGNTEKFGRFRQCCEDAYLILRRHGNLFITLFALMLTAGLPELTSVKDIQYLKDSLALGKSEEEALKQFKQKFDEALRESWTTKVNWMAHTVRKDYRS
Sequence of PI3K beta (P27986 whole entry partner): as the sequence (P27986 whole entry partner) above
Protocol: as §2, §3
(§4) The mixture was incubated at 23° C. for 20 min • (10) 2 μL of ATP solution was added, and the mixture was centrifuged at 1000 rpm and was shaken to mix well • (11) The plate was covered, shaken for about 30 s, and incubated for 2 h at 23° C. • (12) 5 μL of ADP-Glo reagent containing 10 mM MgCl2 was added • (13) The mixture was centrifuged at 1000 rpm for 10 s, covered and shaken for about 30 s, and incubated at 23° C. for 60 min • (14) 10 μL of kinase assay reagent was added • (15) The mixture was centrifuged at 1000 rpm for 10 s, and incubated at 23° C. for 60 min • (16) Fluorescence values were measured by an Envision system. • 2. […] The mixture was incubated at 37° C./CO2 for 10 min. • 5) The compound was removed by pipette. Lysis buffer was added at 50 μL/well, and the cells wereincubated on a shaker for 30 min. • 6) After the cells were completely lysed, 16 μL of lysate was transferred to a 384-well plate and 4 μL of prepared AC+D2 in the kit was added. (AC: Eu3+-cryptate antibody binds to phosphorylated AKT, while D2 binds to non-phosphorylated AKT) The mixture was incubated at room temperature for 4 h.

[2] = In vivo DMPK study, single dose in female Balb/c mice; settings: for half-life / clearance / Vd / bioavailability: female, Balb/c; for half-life / clearance / Vd / bioavailability / Cmax: mouse, plasma; for half-life: 1 mg/kg, note lists it as an intravenous parameter, read-out: T1/2 (half-life) (converted); for half-life / clearance / Vd / bioavailability / Oral DNAUC (dose-normalized area under curve): mice; for clearance / Vd: intravenous 1 mg/kg; for clearance: read-out: Cl (clearance); for Vd: read-out: Vd (apparent volume of distribution); for bioavailability: oral 3 mg/kg vs intravenous 1 mg/kg, read-out: F % (oral bioavailability); for Cmax: oral 3 mg/kg, female Balb/c mice
Protocol: Objective: To evaluate the plasma concentration of the compounds and pharmacokinetics after a single dose in female Balb/c mice.
Procedures: 8 healthy adult female Balb/c mice were randomized, 4 for intravenous administration and 4 for oral administration. The compounds were mixed with a proper amount of vehicle for intravenous injection (DMSO/PEG200/water (5:45:50 v/v/v)). The mixture was vortexed and treated with ultrasound to give a 1.0 mg/mL clear solution. The clear solution was filtered through a microporous membrane filter for later use. For the oral group, the vehicle was 0.5% MC/0.2% Tween 80. The compound was mixed with the vehicle, and the mixture was vortexed and ultrasonically treated to give 1.0 mg/mL uniform suspension for later use. The mice were administered intravenously at 1 mg/kg or orally at 3 mg/kg. Whole blood was collected at certain time points, and plasma was separated. The drug concentration was measured by LC-MS/MS, and pharmacokinetic parameters were calculated using
Phoenix WinNonlin software (Pharsight, USA).

PI3K alpha = PI3K alpha (Homo sapiens, UniProt P42336); test: In vitro enzyme activity assay (ADP-Glo lipid kinase), PI3K alpha
Sequence of PI3K alpha (P42336 whole entry): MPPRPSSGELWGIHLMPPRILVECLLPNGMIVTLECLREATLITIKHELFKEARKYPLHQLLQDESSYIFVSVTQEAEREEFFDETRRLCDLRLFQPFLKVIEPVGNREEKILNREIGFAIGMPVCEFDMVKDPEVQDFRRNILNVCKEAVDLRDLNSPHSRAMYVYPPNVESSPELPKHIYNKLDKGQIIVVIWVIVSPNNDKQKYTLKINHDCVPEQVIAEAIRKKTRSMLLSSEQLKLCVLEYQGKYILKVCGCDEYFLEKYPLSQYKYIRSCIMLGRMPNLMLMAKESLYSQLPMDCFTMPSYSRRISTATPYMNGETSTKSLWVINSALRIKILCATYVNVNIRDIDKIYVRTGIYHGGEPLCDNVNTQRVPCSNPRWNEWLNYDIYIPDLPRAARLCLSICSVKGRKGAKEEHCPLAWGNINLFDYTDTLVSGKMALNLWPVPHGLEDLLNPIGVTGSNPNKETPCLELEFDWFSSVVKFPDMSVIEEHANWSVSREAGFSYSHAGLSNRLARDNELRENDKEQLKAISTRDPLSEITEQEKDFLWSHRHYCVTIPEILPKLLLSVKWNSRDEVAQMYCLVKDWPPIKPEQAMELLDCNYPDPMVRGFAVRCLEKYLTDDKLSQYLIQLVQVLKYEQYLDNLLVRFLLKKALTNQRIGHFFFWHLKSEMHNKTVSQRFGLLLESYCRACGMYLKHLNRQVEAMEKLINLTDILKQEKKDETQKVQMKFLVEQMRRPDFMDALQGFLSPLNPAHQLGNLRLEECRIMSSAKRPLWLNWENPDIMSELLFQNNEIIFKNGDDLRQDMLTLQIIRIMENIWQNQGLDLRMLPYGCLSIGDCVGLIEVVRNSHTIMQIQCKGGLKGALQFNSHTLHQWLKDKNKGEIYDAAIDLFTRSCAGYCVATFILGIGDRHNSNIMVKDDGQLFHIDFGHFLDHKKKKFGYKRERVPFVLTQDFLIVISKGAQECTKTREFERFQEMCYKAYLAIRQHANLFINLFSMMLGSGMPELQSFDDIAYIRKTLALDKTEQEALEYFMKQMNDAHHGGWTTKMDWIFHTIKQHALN
Sequence of PI3K alpha (P27986 whole entry partner): as the sequence (P27986 whole entry partner) above
Protocol: as §2, §3, §4

TMD-8 cell = TMD-8 cell viability test (CellTiter-Glo, 72 h); assay type: cell-based; settings: Homo sapiens, TMD8
Protocol: as §1
Cells were regularly passaged. Cells at logarithmic growth phase were transferred to the plate. • 2) Plating • (1). Cells were stained with trypan blue and viable cells were counted. • (2). Cell concentration was adjusted to 7000 cells/well • (3). 90 μL of cell suspension was added to each well of the plate and cell-free medium was added to blank control wells. • (4). The plate was incubated overnight at 37° C., 5% CO2 and 100% relative humidity in an incubator. • 3) Preparation of Plate Containing Compound Stock
(1). Preparation of plate containing 400× compound stock: Compounds were diluted from the highest concentration gradient to lowest concentration with DMSO. • 4) Preparation of 10× compound working solution and treatment • (1). Preparation of 10× compound working solution: 78 μL of cell culture medium was added to a V-bottom 96-well plate, and 2 μL of compound stock solution was pipetted from the plate containing 400× compound stock into the cell cultures of 96-well plate. 2 μL of DMSO was added to the vehicle control wells and blank control wells. After compounds or DMSO was added, the mixture was well mixed by a pipette. • (2). 10 μL of DMSO-cell culture medium mixture solution was added to the vehicle control wells and blank control wells. The final concentration of DMSO was 0.25%. • (3). The 96-well cell plate was incubated in the incubator for another 72 h. • 5) CellTiter-Glo Luminescent Cell Viability Assay
The following procedure was performed according to the instructions of Promega CellTiter-Glo luminescent cell viability assay kit (Promega-G7573). • (1). CellTiter-Glo buffer was thawed and let stand at room temperature. • (2). The CellTiter-Glo substrate was let stand at room temperature. • (3). The CellTiter-Glo buffer was added to a flask of CellTiter-Glo substrate to dissolve the substrate, thereby preparing a CellTiter-Glo working solution. • (4). The solution was vortexed to completely dissolve the substrate. • (5). The plate was incubated at room temperature for 30 min for equilibration. • (6). 50 μL (equal to half the volume of cell culture medium in each well) of CellTiter-Glo working solution was added to each well. The plate was covered by aluminum foil to avoid light. • (7). The plate was shaken on an orbital shaker for 2 min to induce cell lysis. • (8). The plate was let stand at room temperature for 10 min to stabilize the luminescence signals. • (9). The luminescence signals were detected on 2104 EnVision plate reader.

[3] = Plasma protein binding rate, human; assay type: in vitro ADME; settings: read-out: PPB % (plasma protein binding rate) (converted)
[4] = Plasma protein binding rate, mouse; assay type: in vitro ADME; settings: read-out: PPB % (plasma protein binding rate) (converted)
PI3K gamma = PI3K gamma (Homo sapiens, UniProt P48736); test: In vitro enzyme activity assay (ADP-Glo lipid kinase), PI3K gamma; settings: PI3Kγ IC50, ATP 25 μM, PIP2:3PS 50 μM, 120 min
Sequence of PI3K gamma (P48736 whole entry): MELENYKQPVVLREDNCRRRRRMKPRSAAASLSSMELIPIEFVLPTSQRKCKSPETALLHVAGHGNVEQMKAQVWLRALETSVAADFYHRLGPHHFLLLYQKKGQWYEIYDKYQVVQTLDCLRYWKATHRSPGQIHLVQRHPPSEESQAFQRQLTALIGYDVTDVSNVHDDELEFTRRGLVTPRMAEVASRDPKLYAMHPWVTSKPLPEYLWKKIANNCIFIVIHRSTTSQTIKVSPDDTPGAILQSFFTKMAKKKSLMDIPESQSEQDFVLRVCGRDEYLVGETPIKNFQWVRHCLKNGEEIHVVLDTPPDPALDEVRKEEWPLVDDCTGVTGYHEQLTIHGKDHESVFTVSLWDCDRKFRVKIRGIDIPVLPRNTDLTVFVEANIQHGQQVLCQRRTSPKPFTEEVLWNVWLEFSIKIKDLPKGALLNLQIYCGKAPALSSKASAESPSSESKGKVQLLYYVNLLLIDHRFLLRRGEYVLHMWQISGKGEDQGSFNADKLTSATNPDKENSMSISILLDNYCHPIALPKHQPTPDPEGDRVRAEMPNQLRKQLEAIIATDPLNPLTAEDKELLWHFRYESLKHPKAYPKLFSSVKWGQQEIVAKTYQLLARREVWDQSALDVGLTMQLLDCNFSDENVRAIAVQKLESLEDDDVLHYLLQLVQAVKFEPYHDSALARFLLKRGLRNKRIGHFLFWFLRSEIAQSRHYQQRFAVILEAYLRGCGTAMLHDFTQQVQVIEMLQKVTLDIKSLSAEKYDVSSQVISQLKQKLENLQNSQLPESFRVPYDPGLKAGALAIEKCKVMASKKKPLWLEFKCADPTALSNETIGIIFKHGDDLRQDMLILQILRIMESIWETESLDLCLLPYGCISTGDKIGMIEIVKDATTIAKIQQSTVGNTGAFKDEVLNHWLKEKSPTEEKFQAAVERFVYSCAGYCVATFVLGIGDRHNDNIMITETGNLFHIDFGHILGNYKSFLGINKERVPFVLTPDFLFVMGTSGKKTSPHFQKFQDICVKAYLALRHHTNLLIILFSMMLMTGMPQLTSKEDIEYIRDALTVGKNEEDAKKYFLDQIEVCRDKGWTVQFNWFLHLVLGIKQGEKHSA
Protocol: as §2, §3, §4

[5] = In vivo DMPK study, single dose in female Balb/c mice; settings: mouse, plasma, po, 1 mg/kg, (1 mpk)
[6] = 50 mg/kg(D0-D20) combined with ACP-196 50 mg/kg(D0-D17) + 25 mg/kg(D18-D20)
[7] = 100 mg/kg(D0-D21) combined with ACP-196 75 mg/kg(D0-D21)

`CC(C)Oc1ccc(-c2nn(C(C)c3nc4ccc(F)cn4c(=O)c3-c3cccc(F)c3)c3ncnc(N)c23)cc1F` (single isomer, unassigned) [WX001] gave an IC50 (Jeko-1 cell) of 614 nM, a TGI ([1]; 25 mg/kg(D0-D20) combined with ACP-196 50 mg/kg(D0-D17) + 25 mg/kg(D18-D20)) of 108.10% and a TGI [1, 6] of 108.14%. It also gave a TGI ([1]; 75 mg/kg(D0-D20) combined with ACP-196 50 mg/kg(D0-D17) + 25 mg/kg(D18-D20)) of 108.10%, a TGI [1, 7] of 103.95% and an IC50 (PI3K delta) of 397 nM. For the same molecule, the IC50 (PI3K beta) was > 10000 nM, the half-life [2] was 4.8 h and the clearance [2] was 4.44 mL/min/kg. For the same molecule, the Vd [2] was 2.02 L/kg, the bioavailability [2] was 101% and the Cmax [2] was 1610 nM. For the same molecule, the “Oral DNAUC (dose-normalized area under curve)” value [2] was 7179 nM · h/mpk, the IC50 (PI3K alpha) was > 10000 nM and the IC50 (TMD-8 cell) was 2970 nM. It also gave a fraction unbound [3] of 0.034, a fraction unbound [4] of 0.023 and an IC50 (PI3K gamma) of 472 nM.

In the case of `CC(C)Oc1ccc(-c2nn(C(C)c3nc4ccc(F)cn4c(=O)c3-c3cccc(F)c3)c3ncnc(N)c23)cn1` (single isomer, unassigned) [WX004], the IC50 (Jeko-1 cell) is reported as 1320 nM, the IC50 (PI3K delta) is reported as 257 nM and the IC50 (PI3K beta) is reported as > 10000 nM. For the same molecule, the IC50 (PI3K alpha) was > 10000 nM and the IC50 (PI3K gamma) was 1220 nM.

In the case of `COc1ncc(-c2nn(C(C)c3nc4ccc(F)cn4c(=O)c3-c3cccc(F)c3)c3ncnc(N)c23)cc1C#N` (single isomer, unassigned) [WX005], the IC50 (Jeko-1 cell) is reported as 828 nM, the IC50 (PI3K delta) is reported as 120 nM and the IC50 (PI3K beta) is reported as > 10000 nM. The IC50 (PI3K alpha) was > 10000 nM and the IC50 (PI3K gamma) was 8060 nM.

`COc1ncc(-c2nn(C(C)c3nc4ccc(F)cn4c(=O)c3-c3cccc(F)c3)c3ncnc(N)c23)s1` (single isomer, unassigned) [WX007] gave an IC50 (Jeko-1 cell) of 125 nM, a TGI [1, 7] of 103.16% and an IC50 (PI3K delta) of 1.88 nM. The half-life [2] was 0.644 h, the clearance [2] was 36.7 mL/min/kg and the Vd [2] was 1.75 L/kg. For the same molecule, the bioavailability [2] was 84.7%, the Cmax [2] was 1590 nM and the “Oral DNAUC (dose-normalized area under curve)” value [2] was 674.0 nM · h/mpk. It also gave an IC50 (TMD-8 cell) of 589 nM, a fraction unbound [3] of 0.217 and a fraction unbound [4] of 0.086. The IC50 (PI3K gamma) was 188 nM.

In the case of `COc1ccc(-c2nn(C(C)c3nc4ccc(F)cn4c(=O)c3-c3cccc(F)c3)c3ncnc(N)c23)cn1` (single isomer, unassigned) [WX012], the IC50 (Jeko-1 cell) is reported as 580 nM, the IC50 (PI3K delta) is reported as 54.3 nM and the IC50 (PI3K beta) is reported as > 10000 nM. For the same molecule, the Cmax [2] was 3180 nM, the “Oral DNAUC (dose-normalized area under curve)” value [2] was 2820 nM · h/mpk and the IC50 (PI3K alpha) was > 10000 nM. For the same molecule, the fraction unbound [3] was 0.256, the fraction unbound [4] was 0.192 and the IC50 (PI3K gamma) was 2050 nM.

In the case of `CC(C)Oc1ccc(-c2nn([C@@H](C)c3oc4ccc(F)cc4c(=O)c3-c3cccc(F)c3)c3ncnc(N)c23)cc1F` [TGR-1202, reference compound], the IC50 (Jeko-1 cell) is reported as 478 nM, the TGI [1, 7] is reported as 103.25% and the IC50 (PI3K beta) is reported as > 10000 nM. It also gave a half-life [2] of 5.66 h, a clearance [2] of 8.54 mL/min/kg and a Vd [2] of 4.2 L/kg. The bioavailability [2] was 91.7%, the Cmax [2] was 651 nM and the “Oral DNAUC (dose-normalized area under curve)” value [2] was 3043 nM · h/mpk. For the same molecule, the IC50 (PI3K alpha) was > 10000 nM, the IC50 (TMD-8 cell) was 4050 nM and the fraction unbound [3] was 0.003. For the same molecule, the fraction unbound [4] was 0.003 and the IC50 (PI3K gamma) was 818 nM.

`COCc1ncc(-c2nn(C(C)c3nc4ccc(F)cn4c(=O)c3-c3cccc(F)c3)c3ncnc(N)c23)s1` (stereo not drawn) [WX026] showed an IC50 (PI3K delta) of 33.5 nM, a half-life [2] of 1.99 h and a Cmax [2] of 5260 nM. The “Oral DNAUC (dose-normalized area under curve)” value [2] was 2406 nM · h/mpk, the fraction unbound [3] was 0.263 and the fraction unbound [4] was 0.146. For the same molecule, the IC50 (PI3K gamma) was 2220 nM.

With `CC(C)n1cc(-c2nn(C(C)c3nc4ccc(F)cn4c(=O)c3-c3cccc(F)c3)c3ncnc(N)c23)cn1` (stereo not drawn) [WX038] the Cmax [5] was 1400 nM, the IC50 (PI3K delta) was 39.9 nM and the half-life [2] was 1.76 h. For the same molecule, the clearance [2] was 14.2 mL/min/kg, the Vd [2] was 1.28 L/kg and the bioavailability [2] was 83.8%. For the same molecule, the “Oral DNAUC (dose-normalized area under curve)” value [2] was 1825 nM · h/mpk, the IC50 (TMD-8 cell) was 2320 nM and the IC50 (PI3K gamma) was 2440 nM.

For `COc1ncc(-c2nn(C(C)c3nc4ccc(F)cn4c(=O)c3-c3cccc(F)c3)c3ncnc(N)c23)cn1` (stereo not drawn) [WX042], the TGI [1, 6] was 108.01%, the IC50 (PI3K delta) was 46.9 nM and the half-life [2] was 3.15 h. The clearance [2] was 5.54 mL/min/kg, the Vd [2] was 1.43 L/kg and the bioavailability [2] was 49.3%. For the same molecule, the Cmax [2] was 2620 nM, the “Oral DNAUC (dose-normalized area under curve)” value [2] was 2583 nM · h/mpk and the IC50 (TMD-8 cell) was 2790 nM. The IC50 (PI3K gamma) was 3590 nM.
